# Reference: a melting point compilation (Tetko et al.; mined from patent text by program, amines drawn as free bases though some values may be those of a salt)
row,SMILES,melting point [°C]
1,Nc1ccc(-c2noc(-c3cnn4c(C(F)(F)F)cc(-c5ccc(Cl)c(Cl)c5)nc34)n2)cn1,289
2,COc1cc(I)ccc1C(=O)O,144 to 146
3,COc1ccc2c(CNCCCCCC(=O)O)cc3cc(OC)c(OC)cc3c2c1,133 to 134
4,COc1cc(CSC2=NCCS2)nc(N)n1,122 to 124
5,CCOC(=O)C(C)c1ccc(O)c(NC(C)=O)c1 (centres undefined),137 to 141
6,CC(C)(C)OC(=O)NC1CCCCCC=CC2CC2(C(=O)NS(=O)(=O)C2CC2)NC(=O)C2CC(OC(=O)c3cccnc3)CN2C1=O (centres undefined),157 to 159
7,Cn1c(=O)c2nc(-c3ccc(/C=C/C(=O)O)cc3)[nH]c2n(C)c1=O,299 to 301
8,O=CNNc1ccc(NC(=O)c2cccc(N=C=S)c2)cc1,> 290
9,CCCCCCCCc1cc2c(s1)NC(=O)CN=C2c1ccccc1OC,128 to 130
10,O=C(NCc1ccccc1)OCc1noc(-c2ccc(CN3CCCCCC3)s2)n1,129 to 130
11,CS(=O)(=O)Nc1cc2c(cc1Oc1ccccc1)C(=O)CCO2,143 to 144
12,CN1CCCC1CCOc1ccc(-c2nnc(CSCCOc3ccccc3)o2)cc1 (centres undefined),46 to 50
13,NC(=S)Nc1ccccc1-c1ccc(F)cc1,140 to 142
14,Cc1nnc2n1-c1ccc(I)cc1C(c1ccccc1F)=NC2C (centres undefined),142 to 145
15,CCCCCS(=O)(=O)NC(=O)/C=C/c1ccc(OCC(COC(C)C)OC(C)=O)cc1Oc1ncc(C(F)(F)F)cc1Cl (centres undefined),101 to 103
16,CCN(CC)CCNC(=O)c1cc(Cl)c(N)cc1OCC(=O)OC,92 to 94
17,O=C(O)C1=Cc2cc(Cl)c(Oc3ccccn3)cc2OC1C(F)(F)F (centres undefined),234 to 235
18,O=C1CCC(Br)C(=O)N1 (centres undefined),76 to 83
19,CC1NC(=O)NN=C1c1ccc2c(c1)C(C)(C)C(=O)N2 (centres undefined),292
20,COC(=O)N1CCc2ccccc2CC1,53 to 54
21,O=[N+]([O-])c1ccc2c(c1)OC(CC(F)(F)F)(C(F)(F)F)O2 (centres undefined),87 to 88
22,CC(=O)Nc1ccc(/C=C/C(=O)NCC(=O)N(C)c2ccc(C)c(CO)c2C)cn1,215 to 216
23,CN(C)CCN(C(N)=O)c1cnccn1,105 to 108

row,SMILES,melting point [°C]
1,O=[N+]([O-])c1ccccc1Oc1ccc(OCc2ccc(F)c(F)c2)cc1,74 to 75
2,CC1(OC(=O)c2ccccc2)C(OC(=O)c2ccccc2)OC(COC(=O)c2ccccc2)C1OC(=O)c1ccccc1 (centres undefined),201 to 209
3,Cc1cc(CCCCCS(=O)c2ccc(C3=NCCO3)cc2)on1 (centres undefined),110 to 111
4,CNC(=O)N=c1ccc(C)cn1-c1cccc(C(F)(F)F)c1,114
5,Cc1cc(C)cc(NC(=O)NCc2ccc3c(c2)CN(C2CCC(=O)NC2=O)C3=O)c1 (centres undefined),289 to 291
6,CNC(=O)C(O)C(Oc1ccccc1[N+](=O)[O-])c1ccccc1 (centres undefined),162 to 163
7,Cc1ccccc1CCC(=O)NCc1ncc(C(F)(F)F)cc1Cl,152 to 153
8,CON=C(N)Nc1nc(C)cc(C)n1,134 to 136
9,COc1cccc(OC)c1CC(=O)N1C[C@@H]2C(=O)CCC(c3ccccc3)(c3ccccc3)[C@@H]2C1 (racemic),224
10,CCOC(=O)C1=C(c2ccc(-n3c(C)nc4cnccc43)cc2)NC(C)=C(C(=O)OCCOC)C1c1ccccc1Cl (centres undefined),195 to 196
11,CCc1ccc(Nc2nc3cc(NC(=O)c4cc([N+](=O)[O-])ccc4Cl)ccc3o2)cc1,> 250
12,O=C(OCc1ccccc1)N1CCN2c3ccc([N+](=O)[O-])cc3OCC2C1 (centres undefined),138 to 140
13,COc1ccc(-c2cc3nc(CNCC(C)O)c4ccccc4c3nn2)cc1 (centres undefined),147 to 149
14,CCn1c(Nc2ccc(C)cc2)nnc1[C@@H](C)NS(=O)(=O)c1ccc(Cl)c(Cl)c1,93 to 99
15,O=Cc1c[nH]c2c1ccc1c3cc(F)ccc3[nH]c12,> 250
16,COC(=O)C(C)c1ccc2c(c1)C(=O)Cc1cccnc1S2 (centres undefined),98 to 99.5
17,CCCN(CCC)CCc1ccc(O)c(NC(N)=O)c1,168 to 171
18,COc1cc(Cc2cnc(N)nc2N)cc(OC)c1Cl,218
19,COCn1ccnc1C(O)(c1ccccc1)c1ccc(C(F)(F)F)cc1 (centres undefined),158 to 159
20,O=C(O)CCOc1cccc(CNC(=O)C2Cc3ccccc3N2S(=O)(=O)c2ccc(-c3cccc(C(F)(F)F)c3)cc2)c1 (centres undefined),70
21,CC(C)(C)c1cc(SCCC(=O)N(C2CCCCC2)C2CCCCC2)cc(C(C)(C)C)c1O,168 to 172
22,O=C(NCc1ccc(Cl)cc1)c1cnc2ccc(Br)cc2c1O,282 to 283
23,COC(=O)c1c(S(N)(=O)=O)c(C)nn1C,174 to 176

row,SMILES,melting point [°C]
1,CCOC(=O)C(=NO)C1=Nc2ccc(Cl)cc2C(c2ccccc2Cl)=NC1,219 to 221
2,O=C(NC1N=C(c2ccccc2F)c2ccccc2N(CC(=O)N2CC3CCC(CC3)C2)C1=O)c1cccc(O)c1 (racemic),> 250
3,CNC(=S)C1c2cc([N+](=O)[O-])ccc2OC(C)(C)C1O (centres undefined),203 to 207
4,COc1ccc(COc2cccnc2NC(=S)Nc2ccc(Cl)cc2)cc1,136 to 138
5,COc1ccccc1NC(=O)Nc1nc(Oc2ccc3ccccc3c2)nc(N2Cc3ccccc3CC2C(=O)O)n1 (centres undefined),230 to 235
6,N=C(CF)Nc1cccc(C(N)=O)c1,219 to 220
7,O=C1c2c(Cl)cccc2-n2cnc(-c3noc(C4CC4)n3)c2[C@@H]2CCCN12,236 to 237
8,Clc1nc2cc3ccccc3cc2nc1Cl,239 to 242
9,COc1cc(CO)c([N+](=O)[O-])cc1OCCCCCCOC(C)=O,> 220
10,COc1cccc(N(C)C(=O)c2cnc(Br)s2)c1,106
11,CC(C)(C)OC(=O)n1cc(C(=O)C=C(O)C2(C(=O)O)C=CC=CC2)c2ccccc21 (centres undefined),138 to 141
12,CN1CCN(C(=O)OC2c3ccccc3C(=O)N2c2ccc3c(Cl)ccnc3n2)CC1 (centres undefined),240
13,CNC(Cc1cc(Br)cc(Br)c1N)c1sccc1C (centres undefined),141 to 143
14,c1cc(-c2ccc(N3CCNCC3)cc2)[nH]n1,290
15,CC(C)(C)OC(=O)Nc1cc(Cl)c(Cl)c(Cl)c1,120
16,COc1cc(OC)nc(NC(=O)NS(=O)(=O)c2ncccc2CSC)n1,145 to 147
17,O=C(Nc1ccc(-n2nc(C(F)(F)F)cc2C(F)(F)F)cc1)c1ccc(Br)cc1,205 to 207
18,CCOC(=O)COc1ccc(CBr)cc1,44 to 45
19,O=C(NC(Cc1ccc(OCc2ccccc2)cc1)C(=O)O)c1cn2cc(-c3ccc(Cl)cc3Cl)ccc2n1 (centres undefined),237 to 239
20,CC[C@H](C)OC(=O)COc1ccc(C(=O)[C@H](COC(C)(C)C)NC(=O)c2ccc(C(=N)NC(=O)OC(C)(C)C)cc2)cc1,85 to 87
21,O=[N+]([O-])c1ccc(OCC(F)(F)F)c(OCC(F)(F)F)c1,63 to 65
22,CC(=O)c1ccc(S)cc1OCC(=O)O,149 to 150
23,O=C(O)CCCCCCCn1cnc(-c2ccccc2)c1-c1ccccc1,130

# The remaining lines, values ahead:
row,melting point [°C],SMILES
1,181 to 183,O=C(O)c1ccc(C(=O)N2CCCc3ccccc32)cc1
2,132 to 133,CC(=O)NC1CCCCC1Sc1ccccc1 (centres undefined)
3,211 to 212,CCCCOC(=O)c1cc2c(cn1)[nH]c1ccccc12
4,158 to 160,CC(=O)OCc1csc(Nc2ccc(Oc3ccccc3)cn2)n1
5,303 to 305,CCCn1nc2c(N)nc3ncccc3c2c1CC
6,107 to 108,N#CCCCC1Sc2ccccc2NC1=O (centres undefined)
7,90,CCCCCCN(C(=O)Cc1ccccc1)c1nnc(C)s1
8,169 to 170,CC1(C)OCc2cc([C@@H](O)C(=O)N[C@H]3CCc4ccc(O)cc4C3)ccc2O1
9,101 to 102,CCCCCCc1cn(CC2OC(n3cnc4c(NCc5ccc(OC)cc5)ncnc43)C(O)C2O)nn1 (centres undefined)
10,105 to 108,N#CCc1ccccc1-c1ccc(C(=O)N2Cc3ccc(C(=O)NCc4cccnc4)n3Cc3ccccc32)cc1
11,155 to 157,O=C(O)CCCCCn1c(=O)c2ccccc2n(CCCCN2CCC(OC(c3ccccc3)c3ccccc3)CC2)c1=O
12,> 325,CN1CCc2c(c(P(=O)(O)O)cc3[nH]c(=O)c(=O)[nH]c23)C1
13,81 to 83,CC(C)CC1C(OC2CCCCO2)CC(=O)N1C(=O)OC(C)(C)C (centres undefined)
14,130 to 132,CN(C)CCCCCCCCCCC(=N)NC(=S)Nc1ccc(Cl)cc1
15,153,Cc1ccc(S(=O)(=O)N2[C@H](CCCc3nnnn3C)CC[C@@H]2c2ccc(F)cc2)cc1 (racemic)
16,90 to 91,COC(=O)c1ccc(Cl)cc1NC(=O)CSc1ccc(C)c(C)c1
17,206 to 208,CC1(C)OC(=O)C(C(=O)Nc2ccc(C(F)(F)F)cc2)=C(O)O1
18,182 to 183,C[C@@H](n1cnc2ccc(Br)cc2c1=O)[C@](O)(Cn1cncn1)c1ccc(F)cc1F
19,200,CNC(=O)NCCN1CCC(Nc2nc3ccccc3n2Cc2ccc(C)o2)CC1
20,82 to 84,COc1c(C)c(C)c(OC)c(CC[C@](C)(O)CO)c1C
21,> 240,CN1CCN(Cc2c(C(=O)O)nc3c(=O)[nH]c4cc(C(F)(F)F)ccc4n23)CC1
22,91 to 92,COC(=O)N1C(=O)[C@H](O)[C@@H]1c1ccccc1
23,142,CCCC(NC(=O)Nc1cccc(C)c1)C(=S)N(CC(=O)OC(C)(C)C)c1ccccc1 (racemic)
24,157 to 158,O=C1N[C@H](Cc2ccc(C(F)(F)F)cc2)[C@H](c2ccc(F)c(F)c2)O1 (racemic)
25,157 to 158,C1=Cn2cnnc2Cc2ccccc21
26,32 to 33,FC(F)(F)C(Cc1ccccc1)(C(F)(F)F)C(F)(F)F
27,54 to 55,CCOC(=O)c1cc2c(s1)CCC2=O
28,160,CC(C)(C)C(CS(=O)(=O)c1ccc(Oc2ccc(OC(F)(F)F)cc2)cc1)N(O)C=O (centres undefined)
29,43 to 45,CCCCCc1csc2cc(OC)ccc12
30,90 to 93,CCOC(=O)CCc1ccc2c(c1)CC(CNS(=O)(=O)c1ccc(Cl)cc1)C2 (centres undefined)
